# Literature values as cited in patent US20080063668A1, “Nitroimidazole and terconazole composition and method” (priority 2006, published 2008).
# Structures can show the parent of a compound that is named as a salt.
# Conditions: neutral pH; cited from earlier work
compound,measurement,value
CC(C)N1CCN(c2ccc(OCC3COC(Cn4cncn4)(c4ccc(Cl)cc4Cl)O3)cc2)CC1 (stereo not shown) [Terconazole hydrochloride],solubility in water,about 0.007 percent by weight
